The numbers were not newly measured in patent publication US20090304885A1, “Coffee and Tea Baking Compounds and Method of Producing The Same” (priority 2008, published 2009), which cites them from elsewhere.

Data set [1] concerns Serratia marcescens.
The subject of data set [2] is Enterobacter cloacae.
For data set [3] the following is noted: animal models.
Data set [4] deals with methylazoxymethanol-induced large intestinal tumors. The settings on record: hamster.

As to `O=C(O)c1ccc(O)c(O)c1` [protocatechuic acid], the antibacterial effect result in data set [1] and in data set [2] was “particularly strong effect” each time. As to `O=C(O)/C=C/c1ccc(O)cc1` [para-coumaric acid], the cancer preventive activities entry in data set [3] was “exert cancer preventive activities”. `Cn1c(=O)c2c(ncn2C)n(C)c1=O` [caffeine]: the antibacterial effect entry in data set [1] and in data set [2] was “particularly strong effect” each time. As to `O=C(O)/C=C/c1ccc(O)c(O)c1` [caffeic acid], the cancer preventive activities entry in data set [3] was “exert cancer preventive activities”. As for `O=C(/C=C/c1ccc(O)c(O)c1)O[C@@H]1C[C@](O)(C(=O)O)C[C@@H](O)[C@H]1O` [chlorogenic acid], in data set [4], the inhibition of tumors entry is listed as “inhibit”. In addition, the antibacterial effect entry in data set [1] and in data set [2] was “particularly strong effect” throughout.
